Experimental data published in ChEMBL document CHEMBL5209579, “Flow cytometry transport assay for SLC2A4 using HEK293 JumpIN TRex SLC2A4 WT-OE cells” (2022).

Biological target: T1, Solute carrier family 2, facilitated glucose transporter member 4 (Homo sapiens, UniProt P14672)
T1 sequence (P14672 whole entry): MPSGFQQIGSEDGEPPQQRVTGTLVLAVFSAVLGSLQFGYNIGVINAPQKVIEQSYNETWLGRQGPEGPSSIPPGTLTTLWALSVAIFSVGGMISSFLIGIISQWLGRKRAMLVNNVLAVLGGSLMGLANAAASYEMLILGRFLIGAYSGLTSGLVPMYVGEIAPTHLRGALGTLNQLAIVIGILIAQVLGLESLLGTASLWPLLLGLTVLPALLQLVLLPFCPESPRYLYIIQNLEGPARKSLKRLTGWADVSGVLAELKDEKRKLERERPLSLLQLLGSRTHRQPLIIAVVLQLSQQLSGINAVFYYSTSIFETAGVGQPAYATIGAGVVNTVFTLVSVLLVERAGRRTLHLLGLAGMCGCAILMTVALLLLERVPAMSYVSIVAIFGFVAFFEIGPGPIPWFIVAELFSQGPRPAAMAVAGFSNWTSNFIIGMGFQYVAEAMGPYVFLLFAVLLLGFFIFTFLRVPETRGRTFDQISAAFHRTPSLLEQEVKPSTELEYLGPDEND
Test: Inhibition of the Glucose Transporter (GLUT4, SLC2A4) as assessed by a FRET based flow cytometry assay using a genetically-encoded biosensor for measuring free glucose (FLII12Pglu-700uDelta6) in HEK293 JumpIN TRex SLC2A4 WT-OE cells (PubChem AID: 1794828)
Type: functional, cell-based

SMILES | IC50 [µM] | EC50 [µM]
O=C(Oc1cccc(F)c1OC(=O)c1cccc(O)c1)c1cccc(O)c1 | 2.5 | –
Cc1c(NC(=O)c2cc(C(N)=O)nc3cc(F)ccc23)c(C(F)(F)F)nn1Cc1ccc(C#N)cc1 [BAY-876] | 5.5 | –
OC[C@H]1OC(O)[C@H](O)[C@@H](O)[C@@H]1O (stereo partly drawn) [DEXTROSE] | – | 860
